In patent publication US20260224708A1, “CONJUGATE COMPOUNDS AND COMPOSITIONS” (REZUBIO PHARMACEUTICALS CO., LTD, priority 2023, published 2026):
Counter-ions that a name gives are not always drawn. Blank lines part the entries; values can stand above or below the molecule they belong to.

Tests used:
[1] = Pharmacokinetics in mice, IV and PO; format: in vivo; details: mouse, plasma, male ICR (CD-1) mice
Description: Male ICR (CD-1) mice at around 4-6 weeks with body weight of around 25 grams (n=3) were purchased from VT-River (Zhejiang, China). After 1-week acclimation, animals were dosed with exemplary compounds intravenously at 1 mpk or orally at 10 mpk (0.5% methylcellulose in PBS as vehicle for both routes of administration). Blood samples (30 μL) were collected via saphenous vein puncture at 5 (IV only), 15, 30, 60, 120, 240, 480, and 1440 min post dose. The blood samples were saved in 0.5 M K2EDTA coated tubes and centrifuged at 4,600 rpm at 4° C. for 5 min. Plasma samples were collected and stored in −80° C. till PK analysis.
Take 10 μL of K2EDTA-treated plasma samples of CD-1 mice, add 200 μL of precipitation solution with internal standard (5 ng/mL Terfenadine in MeOH/ACN), mix well by vortexing for 1 min at room temperature followed by centrifuge at 4° C. and 4000 rpm for 15 min. Save the supernatant as injection for LC-MS/MS quantification of exemplary compounds in plasma samples of mice.
Establish a standard curve before and after each analytical batch, accompanied by quality controls of low, medium, and high concentrations. The number of quality control samples is not less than 6 and should be equal to or more than the number of samples of each batch, and interspersed in sample measurement. Standard curve and quality control samples of each batch must meet the acceptance criteria.

GPR40 = biological target: T1, GPR40 (Homo sapiens, UniProt O14842); assay: IP1 accumulation assay in HEK293 cells stably expressing GPR40; format: cell-based
T1 construct: expressed in transfected cells
Description: IP1 accumulation assay was used to evaluate the potency of compounds. HEK293 cells stably expressing GPR40 were cultured in 5% CO2 incubator (ThermoFisher) in maintenance media (Dulbecco's modified Eagle's medium with 4.5 g/L of glucose, 10% fetal bovine serum, 100 μg/mL Hygromycin, and Penicillin (100 U/mL)/Streptomycin (100 μg/mL)) till 100% confluency. Cells were harvested freshly, spun down at 300×g for 5 min, and resuspended in pre-warmed 1×stimulant buffer from Cisbio IP-One HTRF Detection kit (Cisbio). Cell density was adjusted to 2.0×10^6 cells/mL. DMSO was used as blank control and AMG-1638 (CAS #: 1142214-62-7) as positive control. Compounds were prepared at 10 mM in DMSO and 5 nL of 3×serially diluted compounds (10 concentrations) were added to each well of the 384-LDV assay plate (Corning) by using ECHO 550 (Labcyte). Five μL of cells in suspension were transferred into each well by using Multidrop Combi Reagent Dispenser (ThermoFisher). Assay plate was then sealed and incubated at 37° C. for 2 hours. IP-d2 reagent and anti-IP1 reagent were prepared following the manual (Cisbio). Five μL of IP1-d2 and then 5 μL of anti-IP1 antibody was added to each well sequentially. Assay plate was incubated at room temperature for 60 min and then read at 665 nm/615 nm on an Envision plate reader (PerkinElmer). […] Dose curve was fitted and EC50 of each compound was calculated by using XLFit.

T1 sequence (O14842 whole entry): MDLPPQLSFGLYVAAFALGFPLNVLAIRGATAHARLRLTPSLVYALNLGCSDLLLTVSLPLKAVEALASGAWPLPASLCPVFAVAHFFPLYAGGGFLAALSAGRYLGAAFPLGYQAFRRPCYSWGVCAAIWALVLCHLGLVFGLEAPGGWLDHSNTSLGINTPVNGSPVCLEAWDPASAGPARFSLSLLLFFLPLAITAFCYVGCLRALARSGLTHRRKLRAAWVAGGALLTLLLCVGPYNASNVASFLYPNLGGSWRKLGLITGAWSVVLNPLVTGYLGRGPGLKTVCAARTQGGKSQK

SMILES: COc1ccc(C(=O)N(CC(C)(C)CCCCCCCCCCCCCCCCCC(=O)NCCC[N+]23CC[N+](C)(CC2)CC3)c2cccc(C)n2)c(N2CCC(COc3cc([C@@H](CC(=O)O)C4CC4)ccn3)CC2)c1 [Example 19]
clearance ([1]; 1 mg/kg, IV 1 mpk): 0.43 mL/min/kg

SMILES: COc1ccc(C(=O)N(CC(C)(C)CCCCCCCCCCCCCCCCCCCCCC[N+]23CCN(CC2)CC3)c2cccc(C)n2)c(N2CCC(COc3cc([C@@H](CC(=O)O)C4CC4)ccn3)CC2)c1 [Example 21, (S)-1-(24-(2-(4-(((4-(2-carboxy-1-cyclopropylethyl)pyridin-2-yl)oxy)methyl)piperidin-1-yl)-4-methoxy-N-(6-methylpyridin-2-yl)benzamido)-23,23-dimethyltetracosyl)-1,4-diazabicyclo[2.2.2]octan-1-ium]
clearance ([1]; 1 mg/kg, IV 1 mpk): 0.67 mL/min/kg

SMILES: COc1ccc(C(=O)N(CC(C)(C)CCCCCCCCCCCCCCCCCC(=O)NCCC[N+]23CCN(CC2)CC3)c2cccc(C)n2)c(N2CCC(COc3cc([C@@H](CC(=O)O)C4CC4)ccn3)CC2)c1 [Example 18, (S)-1-(3-(20-(2-(4-(((4-(2-carboxy-1-cyclopropylethyl)pyridin-2-yl)oxy)methyl)piperidin-1-yl)-4-methoxy-N-(6-methylpyridin-2-yl)benzamido)-19,19-dimethylicosanamido)propyl)-1,4-diazabicyclo[2.2.2]octan-1-ium TFA salt]
clearance ([1]; 1 mg/kg, IV 1 mpk): 0.32 mL/min/kg

SMILES: COc1ccc(C(=O)N(CC(C)(C)CCn2cc(CCCCCCCCCCCCCCCCCC(=O)NCCC[N+]34CCN(CC3)CC4)nn2)c2cccc(C)n2)c(N2CCC(COc3cc([C@@H](CC(=O)O)C4CC4)ccn3)CC2)c1 [Example 34]
EC50 (GPR40): 0.32 nM

The next lines start with the values.

clearance ([1]; 1 mg/kg, IV 1 mpk): 0.15 mL/min/kg
SMILES: COc1ccc(C(=O)N(CC(C)(C)CCCCCCCCCCCCCCCCCC(=O)NCCC[N+](C)(CC(=O)NCCN)CC(=O)NCCN)c2cccc(C)n2)c(N2CCC(COc3cc([C@@H](CC(=O)O)C4CC4)ccn3)CC2)c1 [Example 12]

clearance ([1]; 1 mg/kg, IV 1 mpk): 0.22 mL/min/kg
SMILES: COc1ccc(C(=O)N(CC(C)(C)CCCCCCCCCCCCCCCCCCCC(=O)NCC[N+](C)(CC(=O)NCCN)CC(=O)NCCN)c2cccc(C)n2)c(N2CCC(COc3cc([C@@H](CC(=O)O)C4CC4)ccn3)CC2)c1 [Example 4]

clearance ([1]; 1 mg/kg, IV 1 mpk): 0.2 mL/min/kg
SMILES: COc1ccc(C(=O)N(CC(C)(C)CCCCCCCCCCCCCCCCCCCC(=O)NCCC[N+](C)(CC(=O)[O-])CC(=O)O)c2cccc(C)n2)c(N2CCC(COc3cc([C@@H](CC(=O)O)C4CC4)ccn3)CC2)c1 (stereo partly drawn) [Example 14]

clearance ([1]; 1 mg/kg, IV 1 mpk): 0.14 mL/min/kg
SMILES: COc1ccc(C(=O)N(CC(C)(C)CCCCCCCCCCCCCCCCCCCC(=O)NCCCN(CC(=O)O)CC(=O)O)c2cccc(C)n2)c(N2CCC(COc3cc([C@@H](CC(=O)O)C4CC4)ccn3)CC2)c1 [Example 13]

EC50 (GPR40): 0.11 nM
AUC ([1]; 1 mg/kg, IV 1 mpk): 104 µM·h
clearance ([1]; 1 mg/kg, IV 1 mpk): 0.1 mL/min/kg
half-life ([1]; 1 mg/kg, IV 1 mpk): 10.5 h
Cmax ([1]; 10 mg/kg, PO 10 mpk): 238 nM
Tmax ([1]; 10 mg/kg, PO 10 mpk): 6.7 h
bioavailability ([1]; 10 mg/kg, PO 10 mpk, oral bioavailability): 0.41%
SMILES: COc1ccc(C(=O)N(CC(C)(C)CCCCCCCCCCCCCCCCCC(=O)NCC[N+](C)(CCCC(=O)NCCN)CCCC(=O)NCCN)c2cccc(C)n2)c(N2CCC(COc3cc([C@@H](CC(=O)O)C4CC4)ccn3)CC2)c1 [Example 17]
